Values joined by “and” are separate entries in the source; they are usually repeats but may differ in a detail not shown here. Identical values can stand only once. Toxic doses and inconclusive results are not listed.
System: L1210 leukemia ip in BDF1 mice, survival T/C
Test: NCI In Vivo Anticancer Drug Screen. Data for tumor model L1210 Leukemia (intraperitoneal) in B6D2F1 (BDF1) mice
Conditions: endpoint: mean survival time, higher = longer survival
Summary of the method: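 Each compound was tested against a transplantable tumor grown in mice. The endpoint was survival, with treated animals benchmarked against vehicle controls as a simple ratio.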

[1] = dose: 100.0 mg/kg/injection, schedule: Q01DX001 (ip), vehicle: Klucel (hydroxypropylcellulose) (HPC)
[2] = dose: 100.0 mg/kg/injection, schedule: Q01DX009 (ip), vehicle: Klucel (hydroxypropylcellulose) (HPC)
[3] = dose: 100.0 mg/kg/injection, schedule: Q04DX003 (ip), vehicle: Klucel (hydroxypropylcellulose) (HPC)
[4] = dose: 200.0 mg/kg/injection, schedule: Q01DX001 (ip), vehicle: Klucel (hydroxypropylcellulose) (HPC)
[5] = dose: 200.0 mg/kg/injection, schedule: Q01DX009 (ip), vehicle: Klucel (hydroxypropylcellulose) (HPC)
[6] = dose: 200.0 mg/kg/injection, schedule: Q04DX003 (ip), vehicle: Klucel (hydroxypropylcellulose) (HPC)
[7] = dose: 400.0 mg/kg/injection, schedule: Q01DX001 (ip), vehicle: Klucel (hydroxypropylcellulose) (HPC)
[8] = dose: 400.0 mg/kg/injection, schedule: Q04DX003 (ip), vehicle: Klucel (hydroxypropylcellulose) (HPC)
[9] = dose: 50.0 mg/kg/injection, schedule: Q01DX009 (ip), vehicle: saline with Tween-80
[10] = dose: 100.0 mg/kg/injection, schedule: Q01DX009 (ip), vehicle: saline with Tween-80
[11] = dose: 100.0 mg/kg/injection, schedule: Q04DX003 (ip), vehicle: saline with Tween-80
[12] = dose: 200.0 mg/kg/injection, schedule: Q01DX009 (ip), vehicle: saline with Tween-80
[13] = dose: 200.0 mg/kg/injection, schedule: Q04DX003 (ip), vehicle: saline with Tween-80
[14] = dose: 400.0 mg/kg/injection, schedule: Q01DX009 (ip), vehicle: saline with Tween-80
[15] = dose: 400.0 mg/kg/injection, schedule: Q04DX003 (ip), vehicle: saline with Tween-80

Clc1ccc2c(c1)/C(=C\c1ccnc3ccccc13)c1cc(Cl)cc(Cl)c1-2
T/C [1]: 94 % of control | T/C [2]: 93 % of control | T/C [3]: 93 % of control | T/C [4]: 92 % of control | T/C [5]: 98 % of control | T/C [6]: 88 % of control | T/C [7]: 94 % of control | T/C [8]: 88 % of control

CCC(CN)(c1cccs1)c1cccs1
T/C [1]: 87 % of control | T/C [4]: 97 % of control | T/C [7]: 103 % of control

Cc1ccc(S(=O)(=O)CC(=O)c2ccccc2)cc1
T/C [3]: 100 % of control | T/C [6]: 107 % of control | T/C [8]: 102 % of control

Clc1ccc(C=NCCN=Cc2ccc(Cl)c(Cl)c2)cc1Cl
T/C (dose: 25.0 mg/kg/injection, schedule: Q01DX009 (ip), vehicle: saline with Tween-80): 92 % of control | T/C [9]: 90 % of control | T/C [10]: 103 % of control | T/C [11]: 91 % of control | T/C [12]: 98 % of control | T/C [13]: 91 % of control | T/C [14]: 101 % of control | T/C [15]: 95 % of control

CCOc1ccc(N=Cc2cc(Br)ccc2O)cc1
T/C (dose: 100.0 mg/kg/injection, schedule: Q04DX002 (ip), vehicle: saline with Tween-80): 96 % of control | T/C (dose: 200.0 mg/kg/injection, schedule: Q04DX002 (ip), vehicle: saline with Tween-80): 100 % of control | T/C (dose: 400.0 mg/kg/injection, schedule: Q04DX002 (ip), vehicle: saline with Tween-80): 100 % of control

CC(=O)Oc1c2ccccc2c2c3c(cccc13)C(=O)O2
T/C [1]: 95 % of control | T/C [4]: 95 % of control | T/C [7]: 95 % of control

CCOC(=O)c1ccc(NC(=O)CC(C)=O)cc1
T/C [11]: 103 % of control | T/C [13]: 101 % of control | T/C [15]: 97 % of control

CCN(C(=O)Nc1ccccc1F)c1cc(OC)ccc1C
T/C [9]: 91 % of control | T/C [10]: 86 % of control

O=c1ccc2c(COc3ccc(Cl)cc3Cl)c3ccc(O)cc3oc-2c1
T/C [3]: 99 % of control | T/C [6]: 99 % of control

CCCCCOC(=O)c1ccccc1C(=O)OCCCCC
T/C (dose: 50.0 mg/kg/injection, schedule: Q01DX001 (ip), vehicle: Klucel (hydroxypropylcellulose) (HPC)): 103 % of control | T/C [1]: 110 % of control | T/C [4]: 104 % of control

Cc1ccc(NC(=O)Nc2cc([N+](=O)[O-])ccc2C)cc1C
T/C [3]: 88 % of control | T/C [6]: 88 % of control | T/C [8]: 96 % of control

O=CNc1ccc(O)cc1
T/C [10]: 104 % of control | T/C [12]: 108 % of control | T/C [14]: 114 % of control

C[P+]1(CCc2ccc(Cl)cc2)CC(Br)C(Br)C1 (configuration not stated)
T/C [1]: 104 % of control

COc1ccccc1N=Nc1c(O)n(-c2ccccc2C)c(=S)n(-c2ccc(C)cc2)c1=O
T/C [1]: 101 % of control | T/C [4]: 93 % of control

O=C(O)C(c1ccccc1)P(=S)(c1ccccc1)c1ccccc1 (configuration not stated)
T/C (dose: 75.0 mg/kg/injection, schedule: Q01DX001 (ip), vehicle: other): 89 % of control | T/C (dose: 150.0 mg/kg/injection, schedule: Q01DX001 (ip), vehicle: other): 111 % of control

CN(C)c1ccc(/C=N/NC(=O)c2ccccc2)cc1
T/C (dose: 100.0 mg/kg/injection, schedule: Q04DX003 (ip), vehicle: other): 94 % of control | T/C (dose: 200.0 mg/kg/injection, schedule: Q04DX003 (ip), vehicle: other): 97 % of control | T/C (dose: 400.0 mg/kg/injection, schedule: Q04DX003 (ip), vehicle: other): 98 % of control

CC(C(=O)Nc1ccc(Cl)c(Cl)c1)C(=O)Nc1ccc(Cl)c(Cl)c1
T/C (dose: 100.0 mg/kg/injection, schedule: Q04DX002 (ip), vehicle: gum acacia): 92 % of control | T/C (dose: 200.0 mg/kg/injection, schedule: Q04DX002 (ip), vehicle: gum acacia): 103 % of control | T/C (dose: 400.0 mg/kg/injection, schedule: Q04DX002 (ip), vehicle: gum acacia): 99 % of control

COc1ccc(-n2c(=O)c(N=Nc3ccccc3OC)c(O)n(-c3ccccc3C)c2=S)cc1
T/C [1]: 98 % of control | T/C [4]: 101 % of control

COC(=O)c1ccccc1NC(c1ccccn1)c1ccc2cccnc2c1O (configuration not stated)
T/C (dose: 125.0 mg/kg/injection, schedule: Q01DX Z (ip), vehicle: carboxymethylcellulose (CMC)): 108 % of control | T/C (dose: 250.0 mg/kg/injection, schedule: Q01DX Z (ip), vehicle: carboxymethylcellulose (CMC)): 102 % of control | T/C (dose: 500.0 mg/kg/injection, schedule: Q01DX Z (ip), vehicle: carboxymethylcellulose (CMC)): 101 % of control

CC1(C)OC2(C)OC1(C)OC2(C)C
T/C (dose: 75.0 mg/kg/injection, schedule: Q01DX009 (ip), vehicle: carboxymethylcellulose (CMC)): 100 % of control | T/C (dose: 150.0 mg/kg/injection, schedule: Q01DX009 (ip), vehicle: carboxymethylcellulose (CMC)): 103 % of control | T/C (dose: 300.0 mg/kg/injection, schedule: Q01DX009 (ip), vehicle: carboxymethylcellulose (CMC)): 105 % of control

CC(=O)N1Cc2ncnc(N)c2C1
T/C (dose: 100.0 mg/kg/injection, schedule: Q01DX001 (ip), vehicle: carboxymethylcellulose (CMC)): 101 % of control | T/C (dose: 200.0 mg/kg/injection, schedule: Q01DX001 (ip), vehicle: carboxymethylcellulose (CMC)): 95 % of control | T/C (dose: 400.0 mg/kg/injection, schedule: Q01DX001 (ip), vehicle: carboxymethylcellulose (CMC)): 101 % of control

NC(=O)CC1(O)CCCCC1
T/C (dose: 100.0 mg/kg/injection, schedule: Q04DX003 (ip), vehicle: saline): 114 % of control | T/C (dose: 200.0 mg/kg/injection, schedule: Q04DX003 (ip), vehicle: saline): 97 % of control | T/C (dose: 400.0 mg/kg/injection, schedule: Q04DX003 (ip), vehicle: saline): 97 % of control

COC(=N)c1ccc(Cl)cc1
T/C [10]: 88 % of control | T/C [12]: 93 % of control

CCC(C)NC1=CC(=O)c2ccccc2C1=O (configuration not stated)
T/C (dose: 100.0 mg/kg/injection, schedule: Q01DX001 (ip), vehicle: saline with Tween-80): 95 % of control | T/C (dose: 200.0 mg/kg/injection, schedule: Q01DX001 (ip), vehicle: saline with Tween-80): 94 % of control

O=NN(CCF)C(=O)NCCF
T/C (dose: 1.25 mg/kg/injection, schedule: Q01DX001 (ip), vehicle: saline): 113 % of control | T/C (dose: 1.75 mg/kg/injection, schedule: Q01DX001 (ip), vehicle: saline): 118 % of control | T/C (dose: 2.0 mg/kg/injection, schedule: Q01DX001 (ip), vehicle: saline): 116 % of control | T/C (dose: 2.5 mg/kg/injection, schedule: Q01DX001 (ip), vehicle: saline): 118 % of control | T/C (dose: 3.5 mg/kg/injection, schedule: Q01DX001 (ip), vehicle: saline): 161 % of control | T/C (dose: 5.0 mg/kg/injection, schedule: Q01DX001 (ip), vehicle: saline): 156 % of control | T/C (dose: 6.0 mg/kg/injection, schedule: Q01DX001 (ip), vehicle: saline): 242 % of control | T/C (dose: 7.0 mg/kg/injection, schedule: Q01DX001 (ip), vehicle: saline): 316 % of control | T/C (dose: 8.0 mg/kg/injection, schedule: Q01DX001 (ip), vehicle: saline): 201 % of control | T/C (dose: 12.0 mg/kg/injection, schedule: Q01DX001 (ip), vehicle: saline): 312 % of control and 333 % of control | T/C (dose: 18.0 mg/kg/injection, schedule: Q01DX001 (ip), vehicle: saline): 322 % of control

COc1ccc(/C=C(\NC(C)=O)C(=O)O)cc1
T/C [2]: 104 % of control | T/C [3]: 100 % of control | T/C [5]: 97 % of control | T/C [6]: 100 % of control | T/C (dose: 400.0 mg/kg/injection, schedule: Q01DX009 (ip), vehicle: Klucel (hydroxypropylcellulose) (HPC)): 98 % of control | T/C [8]: 112 % of control

O=C1C2CCC(C2)C1C(O)(C(F)(F)Cl)C(F)(F)Cl (configuration not stated)
T/C [9]: 92 % of control | T/C [10]: 90 % of control | T/C [12]: 90 % of control | T/C [14]: 92 % of control

O=[N+]([O-])c1cc([N+](=O)[O-])c2nn(-c3ccccc3)[n+]([O-])c2c1
T/C [3]: 101 % of control | T/C [6]: 97 % of control | T/C [8]: 98 % of control

OC(CN1CC1)c1ccccc1 (configuration not stated)
T/C (dose: 20.0 mg/kg/injection, schedule: Q01DX009 (ip), vehicle: Klucel (hydroxypropylcellulose) (HPC)): 95 % of control | T/C (dose: 20.0 mg/kg/injection, schedule: Q04DX003 (ip), vehicle: Klucel (hydroxypropylcellulose) (HPC)): 97 % of control | T/C (dose: 40.0 mg/kg/injection, schedule: Q01DX009 (ip), vehicle: Klucel (hydroxypropylcellulose) (HPC)): 95 % of control | T/C (dose: 40.0 mg/kg/injection, schedule: Q04DX003 (ip), vehicle: Klucel (hydroxypropylcellulose) (HPC)): 102 % of control | T/C (dose: 80.0 mg/kg/injection, schedule: Q04DX003 (ip), vehicle: Klucel (hydroxypropylcellulose) (HPC)): 97 % of control

— PubChem BioAssay AID248 (DTP/NCI, 2004)
